Laboratory results published in US20120178786A9, “Use of tetramic acid derivatives for controlling pests by drenching, drip application, or dip application” (priority 2006, published 2012).

Tested on: Coccus viridis
Experiment: Example 11: drench of gardenia plants, Henderson-Tilton efficacy against nymphs
Type: in vivo
Conditions: 48 mg active substance/1 potting compost, 20 G
Protocol: Gardenia plants cv. […] The greenhouse temperature is 27° C. The test is evaluated 7, 15, 21 and 35 days after the treatment by determining the activity against nymphs on the leaves with the aid of the Henderson-Tilton method.

CN/C(=N/CC1CCOC1)N[N+](=O)[O-] (stereo not shown) [Dinotefuran, dinotefuran]
Henderson-Tilton efficacy (%) against Coccus viridis (7 d after treatment): 0% | Henderson-Tilton efficacy (%) against Coccus viridis (15 d after treatment): 57% | Henderson-Tilton efficacy (%) against Coccus viridis (21 d after treatment): 85% | Henderson-Tilton efficacy (%) against Coccus viridis (35 d after treatment): 91%
